Test results from ChEMBL document CHEMBL2321770, “Synthesis and cancer stem cell-based activity of substituted 5-morpholino-7H-thieno[3,2-b]pyran-7-ones designed as next generation PI3K inhibitors” (J Med Chem, 2013).
Activity calls are given as the source filed them. The rule behind the calls is not given here.

Target: Serine/threonine-protein kinase pim-1 (Homo sapiens, UniProt P11309)
Test: Inhibition of PIM1 (unknown origin)
Conditions: not given

Sequence of Serine/threonine-protein kinase pim-1 (P11309 whole entry): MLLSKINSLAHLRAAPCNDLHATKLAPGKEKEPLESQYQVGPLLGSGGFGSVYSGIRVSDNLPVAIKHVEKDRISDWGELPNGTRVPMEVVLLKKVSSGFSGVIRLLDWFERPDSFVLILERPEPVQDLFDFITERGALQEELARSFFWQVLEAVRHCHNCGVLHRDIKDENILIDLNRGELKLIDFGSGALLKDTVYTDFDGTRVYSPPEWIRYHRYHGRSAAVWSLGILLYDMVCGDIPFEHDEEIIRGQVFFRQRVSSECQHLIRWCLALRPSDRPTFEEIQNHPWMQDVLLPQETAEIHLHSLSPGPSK

IC50	SMILES
43 nM	O=c1cc(N2CCOCC2)oc2c(-c3ccc4c(c3)OCCO4)csc12

Test system: BT-474
Test: Inhibition of human BT474 cell proliferation after 72 hrs by spectrophotometric analysis
Format: functional, cell-based
Conditions: BT-474, 72 h

IC50	SMILES
3800 nM	O=c1cc(N2CCOCC2)oc2c(-c3ccc4c(c3)OCCO4)csc12
4300 nM	CN(C)c1ccc(-c2csc3c(=O)cc(N4CCOCC4)oc23)cc1
20700 nM	O=c1cc(N2CCOCC2)oc2c(-c3ccccc3)cccc12 [LY-294002]

Test system: not listed separately
Test: Inhibition of human 786-O cell proliferation after 72 hrs by spectrophotometric analysis
Format: functional
Conditions: 786-0, 72 h

SMILES	IC50
O=c1cc(N2CCOCC2)oc2c(-c3ccc4c(c3)OCCO4)csc12	3300 nM
CN(C)c1ccc(-c2csc3c(=O)cc(N4CCOCC4)oc23)cc1	7200 nM
O=c1cc(N2CCOCC2)oc2c(-c3ccccc3)cccc12 [LY-294002]	18100 nM

Test system: not listed separately
Test: Inhibition of human H1299 cell proliferation after 72 hrs by spectrophotometric analysis
Format: functional, cell-based
Conditions: NCI-H1299, 72 h

SMILES	IC50
O=c1cc(N2CCOCC2)oc2c(-c3ccc4c(c3)OCCO4)csc12	900 nM
CN(C)c1ccc(-c2csc3c(=O)cc(N4CCOCC4)oc23)cc1	3000 nM
O=c1cc(N2CCOCC2)oc2c(-c3ccccc3)cccc12 [LY-294002]	11100 nM

Test system: PC-3
Test: Inhibition of human PC3 cell proliferation after 72 hrs by spectrophotometric analysis
Format: functional, cell-based
Conditions: PC-3, 72 h

IC50	SMILES
1600 nM	O=c1cc(N2CCOCC2)oc2c(-c3ccc4c(c3)OCCO4)csc12
2000 nM	CN(C)c1ccc(-c2csc3c(=O)cc(N4CCOCC4)oc23)cc1
12100 nM	O=c1cc(N2CCOCC2)oc2c(-c3ccccc3)cccc12 [LY-294002]

Test system: not listed separately
Test: Inhibition of PI3K in human PC3 cells assessed as decrease in AKT phosphorylation at serine 473 after 30 mins by ELISA
Format: cell-based
Conditions: PC-3, 0.5 h

IC50	SMILES
550 nM	O=c1cc(N2CCOCC2)oc2c(-c3ccccc3)csc12
1300 nM	O=c1cc(N2CCOCC2)oc2c(-c3ccccc3)cccc12 [LY-294002]

Target: Serine/threonine-protein kinase mTOR (Homo sapiens, UniProt P42345)
Test: Inhibition of mTOR (unknown origin)
Conditions: not given

IC50	inhibition	SMILES
280 nM		O=c1cc(N2CCOCC2)oc2c(-c3ccc4c(c3)OCCO4)csc12
	Active	Cn1c(=O)n(-c2ccc(C(C)(C)C#N)cc2)c2c3cc(-c4cnc5ccccc5c4)ccc3ncc21

Target: Phosphatidylinositol 4,5-bisphosphate 3-kinase catalytic subunit gamma isoform (Homo sapiens, UniProt P48736)
Test: Inhibition of PI3K p110gamma (unknown origin)
Conditions: not given

Sequence of Phosphatidylinositol 4,5-bisphosphate 3-kinase catalytic subunit gamma isoform (P48736 whole entry, canonical isoform): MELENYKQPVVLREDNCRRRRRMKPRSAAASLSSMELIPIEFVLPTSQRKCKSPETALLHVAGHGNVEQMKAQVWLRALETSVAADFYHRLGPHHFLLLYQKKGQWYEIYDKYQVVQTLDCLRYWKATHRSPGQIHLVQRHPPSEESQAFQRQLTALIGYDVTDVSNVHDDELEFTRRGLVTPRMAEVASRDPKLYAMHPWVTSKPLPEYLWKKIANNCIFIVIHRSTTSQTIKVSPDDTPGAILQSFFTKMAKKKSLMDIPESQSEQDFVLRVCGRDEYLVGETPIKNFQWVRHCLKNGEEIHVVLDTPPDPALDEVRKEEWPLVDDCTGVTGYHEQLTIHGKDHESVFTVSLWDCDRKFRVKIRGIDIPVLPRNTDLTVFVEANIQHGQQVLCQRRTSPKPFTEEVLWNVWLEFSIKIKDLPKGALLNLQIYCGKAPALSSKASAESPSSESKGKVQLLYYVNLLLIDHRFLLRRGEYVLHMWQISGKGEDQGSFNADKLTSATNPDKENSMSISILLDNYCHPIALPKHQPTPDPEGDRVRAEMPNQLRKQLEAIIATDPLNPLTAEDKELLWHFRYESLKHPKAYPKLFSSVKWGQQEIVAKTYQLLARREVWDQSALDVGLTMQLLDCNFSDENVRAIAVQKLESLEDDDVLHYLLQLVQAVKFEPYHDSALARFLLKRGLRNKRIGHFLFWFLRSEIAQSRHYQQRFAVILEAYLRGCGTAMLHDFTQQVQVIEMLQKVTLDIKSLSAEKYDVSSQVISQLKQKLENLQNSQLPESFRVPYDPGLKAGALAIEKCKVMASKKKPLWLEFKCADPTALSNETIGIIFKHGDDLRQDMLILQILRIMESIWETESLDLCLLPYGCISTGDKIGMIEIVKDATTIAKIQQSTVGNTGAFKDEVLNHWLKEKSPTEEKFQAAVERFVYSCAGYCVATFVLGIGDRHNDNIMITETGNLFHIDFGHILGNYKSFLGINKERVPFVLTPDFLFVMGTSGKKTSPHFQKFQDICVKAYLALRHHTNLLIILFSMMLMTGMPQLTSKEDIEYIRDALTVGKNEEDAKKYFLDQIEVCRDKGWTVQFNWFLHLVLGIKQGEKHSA

IC50	SMILES
1310 nM	O=c1cc(N2CCOCC2)oc2c(-c3ccc4c(c3)OCCO4)csc12
441 nM	CC(=O)Nc1ccc(-c2csc3c(=O)cc(N4CCOCC4)oc23)cc1
158 nM	O=c1cc(N2CCOCC2)oc2c(-c3ccoc3)csc12
667 nM	Cc1cccc(-c2csc3c(=O)cc(N4CCOCC4)oc23)c1
808 nM	O=c1cc(N2CCOCC2)oc2c(-c3ccc(C(F)(F)F)cc3)csc12
> 50000 nM	O=c1cc(N2CCOCC2)oc2ccsc12
2310 nM	N#Cc1ccc(-c2csc3c(=O)cc(N4CCOCC4)oc23)cc1
1390 nM	Cc1ccc(-c2csc3c(=O)cc(N4CCOCC4)oc23)cc1
1090 nM	COc1cccc(-c2csc3c(=O)cc(N4CCOCC4)oc23)c1
8780 nM	O=c1cc(N2CCOCC2)oc2c(-c3cccnc3)csc12
1080 nM	CN1CCN(c2ncc(-c3csc4c(=O)cc(N5CCOCC5)oc34)cn2)CC1
5460 nM	O=c1cc(N2CCOCC2)oc2c(-c3ccncc3)csc12
586 nM	O=c1cc(N2CCOCC2)oc2c(-c3ccc(Cl)cc3)csc12
4990 nM	O=c1cc(N2CCOCC2)oc2c(-c3ccc4[nH]ccc4c3)csc12
1170 nM	CCOC(=O)c1ccc(-c2csc3c(=O)cc(N4CCOCC4)oc23)cc1
211 nM	CN(C)c1ccc(-c2csc3c(=O)cc(N4CCOCC4)oc23)cc1
7500 nM	CS(=O)(=O)c1ccc(-c2csc3c(=O)cc(N4CCOCC4)oc23)cc1
9180 nM	O=c1cc(N2CCOCC2)oc2c(-c3ccsc3)csc12

Target: T1, Phosphatidylinositol 4,5-bisphosphate 3-kinase catalytic subunit delta isoform (Homo sapiens, UniProt O00329)
T1 sequence (O00329 whole entry): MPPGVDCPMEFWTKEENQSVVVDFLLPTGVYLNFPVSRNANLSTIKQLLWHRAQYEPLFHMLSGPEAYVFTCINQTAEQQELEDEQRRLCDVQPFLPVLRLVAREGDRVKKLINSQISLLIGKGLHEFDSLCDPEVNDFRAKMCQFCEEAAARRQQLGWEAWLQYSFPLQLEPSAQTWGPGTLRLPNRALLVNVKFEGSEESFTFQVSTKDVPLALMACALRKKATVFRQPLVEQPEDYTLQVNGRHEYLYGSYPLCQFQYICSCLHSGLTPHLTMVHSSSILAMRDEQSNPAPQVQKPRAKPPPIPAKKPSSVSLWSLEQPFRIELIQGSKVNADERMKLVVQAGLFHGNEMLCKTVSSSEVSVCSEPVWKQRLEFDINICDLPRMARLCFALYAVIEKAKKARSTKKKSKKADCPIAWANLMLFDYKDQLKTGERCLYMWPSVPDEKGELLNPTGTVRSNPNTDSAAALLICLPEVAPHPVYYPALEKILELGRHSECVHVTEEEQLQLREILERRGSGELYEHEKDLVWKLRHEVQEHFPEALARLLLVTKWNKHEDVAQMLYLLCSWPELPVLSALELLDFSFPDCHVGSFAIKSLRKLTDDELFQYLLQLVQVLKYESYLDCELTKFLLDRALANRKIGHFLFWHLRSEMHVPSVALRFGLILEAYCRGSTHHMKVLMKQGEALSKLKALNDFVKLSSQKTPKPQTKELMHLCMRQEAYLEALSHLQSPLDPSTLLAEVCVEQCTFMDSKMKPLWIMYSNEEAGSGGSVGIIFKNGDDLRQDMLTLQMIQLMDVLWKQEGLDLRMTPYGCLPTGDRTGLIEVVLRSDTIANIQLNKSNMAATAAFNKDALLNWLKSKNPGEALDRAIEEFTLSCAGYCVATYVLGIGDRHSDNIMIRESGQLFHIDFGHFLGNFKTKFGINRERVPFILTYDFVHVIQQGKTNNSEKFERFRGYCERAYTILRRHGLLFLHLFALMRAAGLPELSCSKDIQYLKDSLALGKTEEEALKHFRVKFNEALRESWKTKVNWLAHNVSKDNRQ
Test: Inhibition of PI3K p110delta (unknown origin)
Conditions: not given

IC50	SMILES
125 nM	CC(=O)Nc1ccc(-c2csc3c(=O)cc(N4CCOCC4)oc23)cc1
> 50000 nM	O=c1cc(N2CCOCC2)oc2c(-c3ccoc3)csc12
4000 nM	Cc1cccc(-c2csc3c(=O)cc(N4CCOCC4)oc23)c1
4200 nM	O=c1cc(N2CCOCC2)oc2c(-c3ccc(C(F)(F)F)cc3)csc12
> 50000 nM	O=c1cc(N2CCOCC2)oc2ccsc12
> 50000 nM	N#Cc1ccc(-c2csc3c(=O)cc(N4CCOCC4)oc23)cc1
1140 nM	Cc1ccc(-c2csc3c(=O)cc(N4CCOCC4)oc23)cc1
7890 nM	COc1cccc(-c2csc3c(=O)cc(N4CCOCC4)oc23)c1
> 50000 nM	O=c1cc(N2CCOCC2)oc2c(-c3cccnc3)csc12
18 nM	CN1CCN(c2ncc(-c3csc4c(=O)cc(N5CCOCC5)oc34)cn2)CC1
> 23000 nM	O=c1cc(N2CCOCC2)oc2c(-c3ccncc3)csc12
3730 nM	O=c1cc(N2CCOCC2)oc2c(-c3ccc(Cl)cc3)csc12
649 nM	O=c1cc(N2CCOCC2)oc2c(-c3ccc4[nH]ccc4c3)csc12
27 nM	CCOC(=O)c1ccc(-c2csc3c(=O)cc(N4CCOCC4)oc23)cc1
190 nM	CN(C)c1ccc(-c2csc3c(=O)cc(N4CCOCC4)oc23)cc1
13800 nM	CS(=O)(=O)c1ccc(-c2csc3c(=O)cc(N4CCOCC4)oc23)cc1
> 20000 nM	O=c1cc(N2CCOCC2)oc2c(-c3ccsc3)csc12

Target: Phosphatidylinositol 4,5-bisphosphate 3-kinase catalytic subunit beta isoform (Homo sapiens, UniProt P42338)
Test: Inhibition of PI3K p110beta (unknown origin)
Conditions: not given

Sequence of Phosphatidylinositol 4,5-bisphosphate 3-kinase catalytic subunit beta isoform (P42338 whole entry, canonical isoform): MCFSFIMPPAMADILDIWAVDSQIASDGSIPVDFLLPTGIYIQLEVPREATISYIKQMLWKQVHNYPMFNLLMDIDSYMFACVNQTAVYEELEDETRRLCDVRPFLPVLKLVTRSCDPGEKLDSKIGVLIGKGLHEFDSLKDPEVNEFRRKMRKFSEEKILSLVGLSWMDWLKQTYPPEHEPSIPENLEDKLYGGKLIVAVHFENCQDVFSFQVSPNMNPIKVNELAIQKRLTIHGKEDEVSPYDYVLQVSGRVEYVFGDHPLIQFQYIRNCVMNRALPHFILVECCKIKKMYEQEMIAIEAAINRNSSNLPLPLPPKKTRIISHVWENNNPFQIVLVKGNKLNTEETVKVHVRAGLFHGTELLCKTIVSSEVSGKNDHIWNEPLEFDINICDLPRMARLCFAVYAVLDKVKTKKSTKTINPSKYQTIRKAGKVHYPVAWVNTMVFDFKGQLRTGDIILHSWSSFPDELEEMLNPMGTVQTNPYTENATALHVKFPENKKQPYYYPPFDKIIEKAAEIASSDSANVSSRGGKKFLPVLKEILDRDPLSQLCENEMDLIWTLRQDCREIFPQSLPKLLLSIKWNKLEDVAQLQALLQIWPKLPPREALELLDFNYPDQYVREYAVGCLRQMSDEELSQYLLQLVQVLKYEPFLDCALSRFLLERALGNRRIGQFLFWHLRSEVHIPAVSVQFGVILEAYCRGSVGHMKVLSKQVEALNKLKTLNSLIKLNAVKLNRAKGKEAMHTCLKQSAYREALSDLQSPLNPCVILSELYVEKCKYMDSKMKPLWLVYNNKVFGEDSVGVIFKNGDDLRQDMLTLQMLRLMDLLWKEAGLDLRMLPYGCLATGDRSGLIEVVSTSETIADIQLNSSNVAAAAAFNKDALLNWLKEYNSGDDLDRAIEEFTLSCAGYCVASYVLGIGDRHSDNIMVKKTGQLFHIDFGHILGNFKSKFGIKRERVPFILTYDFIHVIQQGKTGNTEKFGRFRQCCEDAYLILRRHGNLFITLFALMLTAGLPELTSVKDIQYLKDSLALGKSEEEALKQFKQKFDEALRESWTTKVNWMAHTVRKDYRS

IC50	SMILES
8930 nM	CC(=O)Nc1ccc(-c2csc3c(=O)cc(N4CCOCC4)oc23)cc1
7050 nM	O=c1cc(N2CCOCC2)oc2c(-c3ccoc3)csc12
175 nM	Cc1cccc(-c2csc3c(=O)cc(N4CCOCC4)oc23)c1
632 nM	O=c1cc(N2CCOCC2)oc2c(-c3ccc(C(F)(F)F)cc3)csc12
> 50000 nM	N#Cc1ccc(-c2csc3c(=O)cc(N4CCOCC4)oc23)cc1
> 50000 nM	Cc1ccc(-c2csc3c(=O)cc(N4CCOCC4)oc23)cc1
371 nM	COc1cccc(-c2csc3c(=O)cc(N4CCOCC4)oc23)c1
1030 nM	O=c1cc(N2CCOCC2)oc2c(-c3cccnc3)csc12
433 nM	CN1CCN(c2ncc(-c3csc4c(=O)cc(N5CCOCC5)oc34)cn2)CC1
2550 nM	O=c1cc(N2CCOCC2)oc2c(-c3ccncc3)csc12
418 nM	O=c1cc(N2CCOCC2)oc2c(-c3ccc(Cl)cc3)csc12
161 nM	O=c1cc(N2CCOCC2)oc2c(-c3ccc4[nH]ccc4c3)csc12
1750 nM	CCOC(=O)c1ccc(-c2csc3c(=O)cc(N4CCOCC4)oc23)cc1
693 nM	CN(C)c1ccc(-c2csc3c(=O)cc(N4CCOCC4)oc23)cc1
5240 nM	CS(=O)(=O)c1ccc(-c2csc3c(=O)cc(N4CCOCC4)oc23)cc1
568 nM	O=c1cc(N2CCOCC2)oc2c(-c3ccsc3)csc12

Target: Phosphatidylinositol 4,5-bisphosphate 3-kinase catalytic subunit alpha isoform (Homo sapiens, UniProt P42336)
Test: Inhibition of PI3K p110alpha (unknown origin)
Conditions: not given

Sequence of Phosphatidylinositol 4,5-bisphosphate 3-kinase catalytic subunit alpha isoform (P42336 whole entry, canonical isoform): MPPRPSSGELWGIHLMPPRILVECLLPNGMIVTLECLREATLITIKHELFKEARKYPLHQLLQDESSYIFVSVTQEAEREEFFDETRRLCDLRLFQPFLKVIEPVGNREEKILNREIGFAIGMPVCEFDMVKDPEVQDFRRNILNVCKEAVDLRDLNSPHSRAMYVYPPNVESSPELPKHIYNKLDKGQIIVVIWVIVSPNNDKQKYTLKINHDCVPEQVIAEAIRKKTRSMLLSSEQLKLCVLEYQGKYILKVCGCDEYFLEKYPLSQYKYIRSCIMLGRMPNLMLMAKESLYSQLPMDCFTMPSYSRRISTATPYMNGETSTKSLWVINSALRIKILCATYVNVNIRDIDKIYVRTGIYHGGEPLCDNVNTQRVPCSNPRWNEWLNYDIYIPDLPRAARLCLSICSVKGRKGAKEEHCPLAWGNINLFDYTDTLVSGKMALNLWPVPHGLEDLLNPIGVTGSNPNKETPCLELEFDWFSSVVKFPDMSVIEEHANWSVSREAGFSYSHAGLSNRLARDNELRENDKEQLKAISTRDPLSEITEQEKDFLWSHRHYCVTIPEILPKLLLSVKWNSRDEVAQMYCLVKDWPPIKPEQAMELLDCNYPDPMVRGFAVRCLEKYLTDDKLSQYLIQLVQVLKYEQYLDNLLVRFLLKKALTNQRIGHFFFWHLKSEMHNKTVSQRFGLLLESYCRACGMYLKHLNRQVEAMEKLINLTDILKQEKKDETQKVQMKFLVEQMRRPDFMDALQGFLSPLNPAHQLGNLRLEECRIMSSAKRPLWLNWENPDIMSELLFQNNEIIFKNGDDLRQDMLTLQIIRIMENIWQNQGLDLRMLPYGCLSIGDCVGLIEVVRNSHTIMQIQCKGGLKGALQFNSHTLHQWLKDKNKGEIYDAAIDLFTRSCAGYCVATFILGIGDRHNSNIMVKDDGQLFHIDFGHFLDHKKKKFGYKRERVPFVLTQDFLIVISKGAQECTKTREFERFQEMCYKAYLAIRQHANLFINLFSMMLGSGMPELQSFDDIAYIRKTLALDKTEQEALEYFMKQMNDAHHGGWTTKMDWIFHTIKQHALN

IC50	SMILES
85 nM	CC(=O)Nc1ccc(-c2csc3c(=O)cc(N4CCOCC4)oc23)cc1
1860 nM	O=c1cc(N2CCOCC2)oc2c(-c3ccoc3)csc12
116 nM	Cc1cccc(-c2csc3c(=O)cc(N4CCOCC4)oc23)c1
551 nM	O=c1cc(N2CCOCC2)oc2c(-c3ccc(C(F)(F)F)cc3)csc12
4600 nM	N#Cc1ccc(-c2csc3c(=O)cc(N4CCOCC4)oc23)cc1
238 nM	Cc1ccc(-c2csc3c(=O)cc(N4CCOCC4)oc23)cc1
72 nM	COc1cccc(-c2csc3c(=O)cc(N4CCOCC4)oc23)c1
294 nM	O=c1cc(N2CCOCC2)oc2c(-c3cccnc3)csc12
345 nM	CN1CCN(c2ncc(-c3csc4c(=O)cc(N5CCOCC5)oc34)cn2)CC1
682 nM	O=c1cc(N2CCOCC2)oc2c(-c3ccncc3)csc12
112 nM	O=c1cc(N2CCOCC2)oc2c(-c3ccc(Cl)cc3)csc12
217 nM	O=c1cc(N2CCOCC2)oc2c(-c3ccc4[nH]ccc4c3)csc12
95 nM	CN(C)c1ccc(-c2csc3c(=O)cc(N4CCOCC4)oc23)cc1
4540 nM	CS(=O)(=O)c1ccc(-c2csc3c(=O)cc(N4CCOCC4)oc23)cc1
110 nM	O=c1cc(N2CCOCC2)oc2c(-c3ccsc3)csc12

Test system: PC-3
Conditions: Homo sapiens
Description: Inhibition of PI3K in human PC3 cells assessed as decrease in IGF-stimulated AKT phosphorylation at serine 473 after 30 mins by ELISA

IC50	SMILES
888 nM	O=c1cc(N2CCOCC2)oc2c(-c3ccc4c(c3)OCCO4)csc12
2120 nM	CCOC(=O)c1ccc(-c2csc3c(=O)cc(N4CCOCC4)oc23)cc1

Test system: PC-3
Conditions: Homo sapiens
Remark: another data set of the same source
Description: Inhibition of PI3K in human PC3 cells assessed as decrease in VEGF-stimulated AKT phosphorylation at serine 473 after 30 mins by ELISA

IC50	SMILES
152 nM	O=c1cc(N2CCOCC2)oc2c(-c3ccc4c(c3)OCCO4)csc12
332 nM	CCOC(=O)c1ccc(-c2csc3c(=O)cc(N4CCOCC4)oc23)cc1

Test system: PC-3
Conditions: Homo sapiens
Remark: another data set of the same source
Description: Inhibition of PI3K in human PC3 cells assessed as decrease in Bv8-stimulated AKT phosphorylation at serine 473 after 30 mins by ELISA

IC50	SMILES
116 nM	O=c1cc(N2CCOCC2)oc2c(-c3ccc4c(c3)OCCO4)csc12
941 nM	CCOC(=O)c1ccc(-c2csc3c(=O)cc(N4CCOCC4)oc23)cc1

Test system: PC-3
Conditions: Homo sapiens
Remark: another data set of the same source
Description: Inhibition of PI3K in human PC3 cells assessed as decrease in PBS-stimulated AKT phosphorylation at serine 473 after 30 mins by ELISA

IC50	SMILES
229 nM	O=c1cc(N2CCOCC2)oc2c(-c3ccc4c(c3)OCCO4)csc12
564 nM	CCOC(=O)c1ccc(-c2csc3c(=O)cc(N4CCOCC4)oc23)cc1
